From patent US8791079B2, “Methods for treating heart failure by inhibiting the mitochondrial sodium-calcium exchanger (mNCE)” (priority 2009, dated 2014)

Tests used:
[1] = test system: Guinea pig ventricular myocytes; assay: [Na+]i recording with SBFI in isolated cardiac myocytes; format: cell-based; conditions: ouabain at different concentrations, at rest or with 1-Hz stimulation
Procedure: Guinea pig ventricular myocytes were isolated by enzymatic digestion as described previously. O'Rourke, B., et al., “Oscillations of membrane current and excitability driven by metabolic oscillations in heart cells,” Science, 265(5174):962-966 (Aug. 12, 1994). Cells were suspended in Dulbecco's Modification of Eagle's Medium (DMEM) supplemented with 5% fetal bovine serum, 1% penicillin/streptomycin, and 15 mmol/L HEPES, pH 7.4, and stored in a 5% CO2 incubator at 37° C.
Cytosolic Ca^2+ ([Ca^2+]c), mitochondrial Ca^2+ ([Ca^2+]m), and [Na^+]i were measured with the fluorescent indicators indo-1, rhod-2, and sodium-binding benzofuran isophthalate (SBFI), respectively (Invitrogen, Carlsbad, Calif.), and mitochondrial NADH was measured as the cellular autofluorescence with 360-nm excitation/450-nm emission. Indo-1 was loaded into cell with the membrane permeable form, indo-1 AM. To minimize indo-1 loading into the mitochondrial compartment, cells were briefly incubated with indo-1 AM at room temperature for 20 min. Rhod-2 and SBFI experiments were carried out as previously described. Maack et al., supra, Liu and O'Rourke, supra. […]
Isolated ventricular myocytes were loaded into a heated field-stimulation chamber (Warner Instruments, Hamden, Conn.) at 37° C. on the stage of a fluorescence microscope (Nikon Eclipse TE300, Nikon Instruments, Inc., Melville, N.Y.). […]

aortic-banded animals [2] = assay: Delayed sudden cardiac death model (aortic banding plus daily low dose isoproterenol), survival and echocardiography; format: in vivo, guinea pig
Text: (§1) As provided herein, the presently disclosed subject matter investigated whether these mechanisms underlie sudden cardiac death (SCD) and contractile decompensation in hypertrophic heart failure in two novel guinea-pig models of combined ascending aortic constriction together with β-adrenergic stimulation and whether therapy via mNCE inhibition was effective. Accordingly, in some embodiments, the presently disclosed subject matter provides a therapeutic strategy for treating heart failure.
(§2) Two models were developed: acute SCD and delayed SCD. The acute SCD model used a high dose of isoproterenol (5 mg/kg) administered by a single intraperitoneal injection two days after ascending aortic banding; and the delayed SCD model used low dose isoproterenol (week one: 1 mg/kg; subsequent weeks: 2 mg/kg), administered by daily intraperitoneal injection over the course of five weeks after aortic banding. Additionally, a therapeutic regime comprised of chronic treatment with an inhibitor of mNCE, e.g., CGP-37157, mean dose approximately 40 μg/kg, administered by implantation of an osmotic pump in the abdominal cavity (delivery rate: 0.015 mg/kg/hr) for extended delivery of the compound was initiated.
The delayed SCD protocol was used to investigate the effect of chronic CGP-37157 treatment on mortality and the development of heart failure. Survival was extended using this protocol as compared with the acute SCD model. In the absence of CGP-37157, however, the death rate of the animals approached 60% by 30 days post-banding (see FIG. 10). In contrast, more than 78% of the animals survived in the group with CGP-37157 treatment (see FIG. 10).
Further, echocardiographic studies were carried out before surgery and at four weeks after aortic banding (see FIG. 11). […] In the group with CGP-37157 treatment, however, cardiac function was maintained.

aortic-banded animals [3] = assay: Acute sudden cardiac death model (ascending aortic banding plus isoproterenol 5 mg/kg); format: in vivo, guinea pig; conditions: single dose 5 mg/kg isoproterenol i.p. two days after aortic banding; CGP-37157 by osmotic pump; 77% without CGP-37157
Text: as §1, §2

SMILES | [Na+]i [1] | animals survived (aortic-banded animals [2]; 30 days post-banding, daily isoproterenol, CGP-37157 by osmotic pump, death rate approached 60% without CGP-37157) | Fractional Shortening (FS) at baseline (aortic-banded animals [2]; CGP-37157-treated group, before surgery, n=6) | Fractional Shortening (FS) at four weeks after aortic banding (aortic-banded animals [2]; CGP-37157-treated group, n=6, without CGP-37157 FS decreased from 54.9 to 42.5) | left ventricular wall thickness (aortic-banded animals [2]; echocardiography four weeks after aortic banding versus before surgery) | death rate (aortic-banded animals [3]) [%]
C[C@@H]1O[C@@H](O[C@H]2C[C@@H](O)[C@]3(CO)[C@H]4[C@H](O)C[C@]5(C)[C@@H](C6=CC(=O)OC6)CC[C@]5(O)[C@@H]4CC[C@]3(O)C2)[C@H](O)[C@H](O)[C@H]1O [ouabain, 1β,3β,5β,11α,14,19-Hexahydroxycard-20(22)-enolide 3-(6-deoxy-α-L-mannopyranoside, reference compound] | elevated [Na^+]i monotonically in a dose-dependent way |  |  |  |  | 
O=C1CSC(c2ccccc2Cl)c2cc(Cl)ccc2N1 (stereo not drawn) [CGP-37157, 7-chloro-5-(2-chlorophenyl)-1,5-dihydro-4,1-benzothiazepin-2(3H)-one] |  | more than 78% | 54.0%±1.0 | 59.2%±1.8 | increased similarly in both groups | 20
